Activity calls are given as the source filed them. The rule behind the calls is not given here.
Key:
[1] = tested on: Deinococcus radiodurans; assay: Ratio of kcat/km of Deinococcus radiodurans homoisocitrate dehydrogenase
[2] = tested on: Deinococcus radiodurans; assay: Activity of Deinococcus radiodurans homoisocitrate dehydrogenase
[3] = target: Homoisocitrate dehydrogenase, mitochondrial (Saccharomyces cerevisiae S288c) (UniProt P40495); assay: Activity of recombinant Saccharomyces cerevisiae homoisocitrate dehydrogenase expressed in Escherichia coli Rosetta cells above 10 mM
[4] = tested on: Deinococcus radiodurans; assay: Activity of Deinococcus radiodurans homoisocitrate dehydrogenase above 10 mM

Sequence of Homoisocitrate dehydrogenase, mitochondrial (Saccharomyces cerevisiae S288c) (P40495 whole entry): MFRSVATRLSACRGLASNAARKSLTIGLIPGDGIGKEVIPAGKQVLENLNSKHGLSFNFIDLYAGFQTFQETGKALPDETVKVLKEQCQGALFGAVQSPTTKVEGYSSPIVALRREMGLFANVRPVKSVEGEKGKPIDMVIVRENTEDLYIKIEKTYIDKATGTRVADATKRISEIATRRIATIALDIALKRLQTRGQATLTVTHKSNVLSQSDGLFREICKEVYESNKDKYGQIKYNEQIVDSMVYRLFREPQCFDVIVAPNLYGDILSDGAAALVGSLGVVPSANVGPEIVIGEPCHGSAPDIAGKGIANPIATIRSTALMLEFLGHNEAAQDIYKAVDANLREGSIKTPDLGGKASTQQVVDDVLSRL

Structure (SMILES) | kcat/Km [1] [M⁻¹ s⁻¹] | Km [2] [µM] | kcat [2] [s⁻¹] | Activity [3] | Activity [4]
C=C[C@H](C(=O)O)[C@@H](O)C(=O)O | 9300 | 83 | 0.77 | – | –
NCCC[C@H](C(=O)O)[C@@H](O)C(=O)O | – | – | – | inactive | inactive
CCCCC[C@H](C(=O)O)[C@@H](O)C(=O)O | 1200 | 3200 | 3.7 | – | –
CC(C)[C@H](C(=O)O)[C@@H](O)C(=O)O | – | – | – | inactive | –
O=C(O)[C@H](O)[C@@H](C(=O)O)c1ccccc1 | – | – | – | inactive | inactive
CC[C@H](C(=O)O)[C@@H](O)C(=O)O | 430000 | 1000 | 43 | – | –
O=C(O)[C@@H](O)[C@@H](O)C(=O)O | – | – | – | inactive | inactive
O=C(O)C[C@H](C(=O)O)[C@@H](O)C(=O)O | – | – | – | inactive | –
O=C(O)[C@@H](CCCO)[C@@H](O)C(=O)O | 200000 | 510 | 29 | – | –
O=C(O)[C@@H](CCCCO)[C@@H](O)C(=O)O | 60000 | 470 | 28 | – | –
C[C@H](C(=O)O)[C@@H](O)C(=O)O | 5300 | 3600 | 19 | – | –
CCC[C@H](C(=O)O)[C@@H](O)C(=O)O | 68000 | 780 | 53 | – | –
O=C(O)C[C@@H](O)C(=O)O | – | – | – | inactive | inactive
O=C(O)CCCC[C@H](C(=O)O)[C@@H](O)C(=O)O | 290000 | 140 | 40 | – | –
O=C(O)CCC[C@H](C(=O)O)[C@@H](O)C(=O)O | 200000 | 200 | 40 | – | –
C=CC[C@H](C(=O)O)[C@@H](O)C(=O)O | 13000 | 2800 | 37 | – | –
C=CCCC[C@H](C(=O)O)[C@@H](O)C(=O)O | 1100 | 2700 | 3 | – | –
O=C(O)[C@@H](CCO)[C@@H](O)C(=O)O | 42000 | 590 | 25 | – | –

Source: ChEMBL document CHEMBL1142886, “Substrate specificity analysis and inhibitor design of homoisocitrate dehydrogenase” (Bioorg Med Chem, 2007)
